This is an account of results in patent publication US20220218690A1, “MONTELUKAST SALTS AND PHARMACEUTICAL COMPOSITIONS CONTAINING THE SAME” (GENETIC S.P.A., priority 2019, published 2022).

For one test, the system named is IgE. The conditions noted are these: 0.3 mg/Kg; FIG. 18-A. Here is the method:
(§1) Mouse model of asthma. Female BALB/c mice (8 weeks: Charles River) were sensitized through subcutaneous administration of Ovalbumin (100 μg dissolved in 400 μl of AlOH3 13.5 mg/ml) on days 0 and 8, on the twenty-first day the mice were stimulated by aerosolic administration of Ovalbumin (3% for twenty minutes). The mice were sacrificed after 48 hours and the bronchi used for the evaluation of bronchial reactivity at carbachol and salbutamol. The drugs were administered intraperitoneally prior to each exposure to the allergen. […] Pulmonary tissues were harvested and used for dosage of cytokines such as IL-4 and IL-13. In addition plasma levels of IgE were measured.

The subject of another test is bronchial rings. The settings on record: Montelukast 1 μM, in vitro, FIG. 12.
A further test concerns Paw mouse edema. The conditions noted are these: 0.3 mg/kg intraperitoneal, 30 minutes before intraplantar carrageenin; FIG. 13.
Test [1] deals with bronchial hyperreactivity. How it is done:
as §1

Each structure is given as a SMILES string. Entries after “also recorded” stand apart in the source; their conditions may differ.

Turning to `CC(C)(O)c1ccccc1CC[C@@H](SCC1(CC(=O)O)CC1)c1cccc(/C=C/c2ccc3ccc(Cl)cc3n2)c1` [Montelukast, (R,E)-2-(1-((1-(3-(2-(7-Chloroquinolin-2-yl)vinyl)phenyl)-3-(2-(2-hydroxypropan-2-yl)phenyl)propylthio)-methyl)cyclopropyl)acetic acid], the IgE plasma levels entry in the test on IgE is given as “unaffected”. In the test with bronchial rings, the “effect of Montelukast preincubation on the bronchodilating response of Formoterol” value is “does not alter the bronchodilating response of the Formoterol, preserves its efficacy”. Further, the anti-inflammatory effect entry in the test with Paw mouse edema was “induces an anti-inflammatory effect”.

Consider `CC(C)(O)c1ccccc1CCC(SCC1(CC(=O)O)CC1)c1cccc(C=Cc2ccc3ccc(Cl)cc3n2)c1.COc1ccc(CC(C)NCC(O)c2ccc(O)c(NC=O)c2)cc1` (centres unmarked) [Montelukast formoterol salt, N-(2-(3-formamido-4-hydroxyphenyl)-2-hydroxyethyl)-1-(4-methoxy-phenyl)propan-2-aminium-2-(1-(((1-(3-(2-(7-chloroquinolin-2-yl)vinyl)-phenyl)-3-(2-(2-hydroxypropan-2-yl)phenyl)propyl)thio-)methyl)cyclopropyl)acetate], for which the “therapeutic efficacy in controlling the development of hyperreactivity to carbachol induced by sensitization” value in test [1] (salt […] vs Formoterol 0.3 mg/kg and Montelukast 0.3 mg/kg (almost double molar dose), FIG. 16) was “significantly higher than the parent drugs Formoterol and Montelukast”. In addition, the “therapeutic efficacy in controlling the airway dysfunction induced by sensitization” value in test [1] (salt at halved molar dose respect to single drugs) was “significantly higher than Formoterol and Montelukast; also recorded: more efficiently reverses both airway effects”.
